Results reported in patent publication US20140120232A1, “ACID TASTE/ACID SMELL-REDUCING AGENT” (T. HASEGAWA CO., LTD., priority 2011, published 2014).

Test: Sensory evaluation of Vermont drink containing the agent
Settings: ten panels
Method in brief: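 Tridecadienal or tridecatrienal isomers added at various concentrations to a Vermont-flavoured drink (apple-cider vinegar, honey, liquid sugar, citric acid, trisodium citrate, 100 mL total). Ten panelists assessed acid taste/acid smell and aldehyde-type off-odour, and the concentration giving the best acid taste/smell quality was selected.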

CCCCC/C=C/C/C=C\CCC=O [(Z,E)-4,7-tridecadienal]
8: X: number of panels, acid taste reduced but piercing odor characteristic to aldehydes unpleasant (50 ppb) | N: number of panels, irritation of acid reduced to give a mild acid taste (100 ppt)
5: A: number of panels, acid taste/acid smell extreme and cause irritation (0.5 ppt) | X: number of panels, acid taste reduced but piercing odor characteristic to aldehydes unpleasant (10 ppb)
7: N: number of panels, irritation of acid reduced to give a mild acid taste (20 ppt)
4: N: number of panels, irritation of acid reduced to give a mild acid taste (1 ppb) | X: number of panels, acid taste reduced but piercing odor characteristic to aldehydes unpleasant (1 ppb) | Flavor judgment: number of panels who judged acid taste/acid smell quality the highest (5 ppt) | N: number of panels, irritation of acid reduced to give a mild acid taste (500 ppt)
0: B: number of panels, acid taste/acid smell slightly strong and slightly cause irritation (0.005 ppt) | C: number of panels, acid taste/acid smell slightly unpleasant (0.005 ppt) | Flavor judgment: number of panels who judged acid taste/acid smell quality the highest (0.005 ppt) | N: number of panels, irritation of acid reduced to give a mild acid taste (0.005 ppt) | X: number of panels, acid taste reduced but piercing odor characteristic to aldehydes unpleasant (0.005 ppt) | B: number of panels, acid taste/acid smell slightly strong and slightly cause irritation (0.02 ppt) | C: number of panels, acid taste/acid smell slightly unpleasant (0.02 ppt) | Flavor judgment: number of panels who judged acid taste/acid smell quality the highest (0.02 ppt) | N: number of panels, irritation of acid reduced to give a mild acid taste (0.02 ppt) | X: number of panels, acid taste reduced but piercing odor characteristic to aldehydes unpleasant (0.02 ppt) | B: number of panels, acid taste/acid smell slightly strong and slightly cause irritation (0.1 ppt) | C: number of panels, acid taste/acid smell slightly unpleasant (0.1 ppt) | Flavor judgment: number of panels who judged acid taste/acid smell quality the highest (0.1 ppt) | N: number of panels, irritation of acid reduced to give a mild acid taste (0.1 ppt) | X: number of panels, acid taste reduced but piercing odor characteristic to aldehydes unpleasant (0.1 ppt) | C: number of panels, acid taste/acid smell slightly unpleasant (0.2 ppt) | Flavor judgment: number of panels who judged acid taste/acid smell quality the highest (0.2 ppt) | N: number of panels, irritation of acid reduced to give a mild acid taste (0.2 ppt) | X: number of panels, acid taste reduced but piercing odor characteristic to aldehydes unpleasant (0.2 ppt) | Flavor judgment: number of panels who judged acid taste/acid smell quality the highest (0.5 ppt) | N: number of panels, irritation of acid reduced to give a mild acid taste (0.5 ppt) | X: number of panels, acid taste reduced but piercing odor characteristic to aldehydes unpleasant (0.5 ppt) | A: number of panels, acid taste/acid smell extreme and cause irritation (1 ppb) | B: number of panels, acid taste/acid smell slightly strong and slightly cause irritation (1 ppb) | Flavor judgment: number of panels who judged acid taste/acid smell quality the highest (1 ppb) | A: number of panels, acid taste/acid smell extreme and cause irritation (1 ppt) | Flavor judgment: number of panels who judged acid taste/acid smell quality the highest (1 ppt) | X: number of panels, acid taste reduced but piercing odor characteristic to aldehydes unpleasant (1 ppt) | A: number of panels, acid taste/acid smell extreme and cause irritation (5 ppt) | X: number of panels, acid taste reduced but piercing odor characteristic to aldehydes unpleasant (5 ppt) | A: number of panels, acid taste/acid smell extreme and cause irritation (10 ppb) | B: number of panels, acid taste/acid smell slightly strong and slightly cause irritation (10 ppb) | Flavor judgment: number of panels who judged acid taste/acid smell quality the highest (10 ppb) | A: number of panels, acid taste/acid smell extreme and cause irritation (20 ppt) | X: number of panels, acid taste reduced but piercing odor characteristic to aldehydes unpleasant (20 ppt) | A: number of panels, acid taste/acid smell extreme and cause irritation (50 ppb) | B: number of panels, acid taste/acid smell slightly strong and slightly cause irritation (50 ppb) | C: number of panels, acid taste/acid smell slightly unpleasant (50 ppb) | Flavor judgment: number of panels who judged acid taste/acid smell quality the highest (50 ppb) | A: number of panels, acid taste/acid smell extreme and cause irritation (100 ppt) | B: number of panels, acid taste/acid smell slightly strong and slightly cause irritation (100 ppt) | X: number of panels, acid taste reduced but piercing odor characteristic to aldehydes unpleasant (100 ppt) | A: number of panels, acid taste/acid smell extreme and cause irritation (500 ppt) | Flavor judgment: number of panels who judged acid taste/acid smell quality the highest (500 ppt)
10: A: number of panels, acid taste/acid smell extreme and cause irritation (0.005 ppt) | A: number of panels, acid taste/acid smell extreme and cause irritation (0.02 ppt) | A: number of panels, acid taste/acid smell extreme and cause irritation (0.1 ppt)
9: A: number of panels, acid taste/acid smell extreme and cause irritation (0.2 ppt)
1: B: number of panels, acid taste/acid smell slightly strong and slightly cause irritation (0.2 ppt) | N: number of panels, irritation of acid reduced to give a mild acid taste (1 ppt) | B: number of panels, acid taste/acid smell slightly strong and slightly cause irritation (20 ppt) | B: number of panels, acid taste/acid smell slightly strong and slightly cause irritation (500 ppt)
2: C: number of panels, acid taste/acid smell slightly unpleasant (0.5 ppt) | C: number of panels, acid taste/acid smell slightly unpleasant (1 ppb) | B: number of panels, acid taste/acid smell slightly strong and slightly cause irritation (5 ppt) | C: number of panels, acid taste/acid smell slightly unpleasant (5 ppt) | C: number of panels, acid taste/acid smell slightly unpleasant (10 ppb) | C: number of panels, acid taste/acid smell slightly unpleasant (20 ppt) | N: number of panels, irritation of acid reduced to give a mild acid taste (50 ppb) | C: number of panels, acid taste/acid smell slightly unpleasant (100 ppt) | X: number of panels, acid taste reduced but piercing odor characteristic to aldehydes unpleasant (500 ppt)
6: C: number of panels, acid taste/acid smell slightly unpleasant (1 ppt) | N: number of panels, irritation of acid reduced to give a mild acid taste (5 ppt)
3: B: number of panels, acid taste/acid smell slightly strong and slightly cause irritation (0.5 ppt) | B: number of panels, acid taste/acid smell slightly strong and slightly cause irritation (1 ppt) | N: number of panels, irritation of acid reduced to give a mild acid taste (10 ppb) | Flavor judgment: number of panels who judged acid taste/acid smell quality the highest (20 ppt) | Flavor judgment: number of panels who judged acid taste/acid smell quality the highest (100 ppt) | C: number of panels, acid taste/acid smell slightly unpleasant (500 ppt)

CCCCC/C=C/C/C=C\C=C\C=O [(E,Z,E)-2,4,7-tridecatrienal]
1: N: number of panels, irritation of acid reduced to give a mild acid taste (1 ppt) | B: number of panels, acid taste/acid smell slightly strong and slightly cause irritation (5 ppt) | C: number of panels, acid taste/acid smell slightly unpleasant (10 ppb)
10: A: number of panels, acid taste/acid smell extreme and cause irritation (0.005 ppt) | A: number of panels, acid taste/acid smell extreme and cause irritation (0.02 ppt) | A: number of panels, acid taste/acid smell extreme and cause irritation (0.1 ppt)
2: B: number of panels, acid taste/acid smell slightly strong and slightly cause irritation (0.2 ppt) | B: number of panels, acid taste/acid smell slightly strong and slightly cause irritation (0.5 ppt) | C: number of panels, acid taste/acid smell slightly unpleasant (0.5 ppt) | C: number of panels, acid taste/acid smell slightly unpleasant (1 ppb) | N: number of panels, irritation of acid reduced to give a mild acid taste (10 ppb) | N: number of panels, irritation of acid reduced to give a mild acid taste (50 ppb) | C: number of panels, acid taste/acid smell slightly unpleasant (100 ppt) | Flavor judgment: number of panels who judged acid taste/acid smell quality the highest (100 ppt)
4: N: number of panels, irritation of acid reduced to give a mild acid taste (1 ppb) | X: number of panels, acid taste reduced but piercing odor characteristic to aldehydes unpleasant (1 ppb) | Flavor judgment: number of panels who judged acid taste/acid smell quality the highest (5 ppt) | Flavor judgment: number of panels who judged acid taste/acid smell quality the highest (20 ppt) | N: number of panels, irritation of acid reduced to give a mild acid taste (500 ppt)
6: A: number of panels, acid taste/acid smell extreme and cause irritation (0.5 ppt) | B: number of panels, acid taste/acid smell slightly strong and slightly cause irritation (1 ppt) | N: number of panels, irritation of acid reduced to give a mild acid taste (5 ppt)
7: X: number of panels, acid taste reduced but piercing odor characteristic to aldehydes unpleasant (10 ppb) | N: number of panels, irritation of acid reduced to give a mild acid taste (20 ppt)
8: A: number of panels, acid taste/acid smell extreme and cause irritation (0.2 ppt) | X: number of panels, acid taste reduced but piercing odor characteristic to aldehydes unpleasant (50 ppb) | N: number of panels, irritation of acid reduced to give a mild acid taste (100 ppt)
3: C: number of panels, acid taste/acid smell slightly unpleasant (1 ppt) | C: number of panels, acid taste/acid smell slightly unpleasant (5 ppt) | C: number of panels, acid taste/acid smell slightly unpleasant (20 ppt) | C: number of panels, acid taste/acid smell slightly unpleasant (500 ppt) | X: number of panels, acid taste reduced but piercing odor characteristic to aldehydes unpleasant (500 ppt)
0: B: number of panels, acid taste/acid smell slightly strong and slightly cause irritation (0.005 ppt) | C: number of panels, acid taste/acid smell slightly unpleasant (0.005 ppt) | Flavor judgment: number of panels who judged acid taste/acid smell quality the highest (0.005 ppt) | N: number of panels, irritation of acid reduced to give a mild acid taste (0.005 ppt) | X: number of panels, acid taste reduced but piercing odor characteristic to aldehydes unpleasant (0.005 ppt) | B: number of panels, acid taste/acid smell slightly strong and slightly cause irritation (0.02 ppt) | C: number of panels, acid taste/acid smell slightly unpleasant (0.02 ppt) | Flavor judgment: number of panels who judged acid taste/acid smell quality the highest (0.02 ppt) | N: number of panels, irritation of acid reduced to give a mild acid taste (0.02 ppt) | X: number of panels, acid taste reduced but piercing odor characteristic to aldehydes unpleasant (0.02 ppt) | B: number of panels, acid taste/acid smell slightly strong and slightly cause irritation (0.1 ppt) | C: number of panels, acid taste/acid smell slightly unpleasant (0.1 ppt) | Flavor judgment: number of panels who judged acid taste/acid smell quality the highest (0.1 ppt) | N: number of panels, irritation of acid reduced to give a mild acid taste (0.1 ppt) | X: number of panels, acid taste reduced but piercing odor characteristic to aldehydes unpleasant (0.1 ppt) | C: number of panels, acid taste/acid smell slightly unpleasant (0.2 ppt) | Flavor judgment: number of panels who judged acid taste/acid smell quality the highest (0.2 ppt) | N: number of panels, irritation of acid reduced to give a mild acid taste (0.2 ppt) | X: number of panels, acid taste reduced but piercing odor characteristic to aldehydes unpleasant (0.2 ppt) | Flavor judgment: number of panels who judged acid taste/acid smell quality the highest (0.5 ppt) | N: number of panels, irritation of acid reduced to give a mild acid taste (0.5 ppt) | X: number of panels, acid taste reduced but piercing odor characteristic to aldehydes unpleasant (0.5 ppt) | A: number of panels, acid taste/acid smell extreme and cause irritation (1 ppb) | B: number of panels, acid taste/acid smell slightly strong and slightly cause irritation (1 ppb) | Flavor judgment: number of panels who judged acid taste/acid smell quality the highest (1 ppb) | A: number of panels, acid taste/acid smell extreme and cause irritation (1 ppt) | Flavor judgment: number of panels who judged acid taste/acid smell quality the highest (1 ppt) | X: number of panels, acid taste reduced but piercing odor characteristic to aldehydes unpleasant (1 ppt) | A: number of panels, acid taste/acid smell extreme and cause irritation (5 ppt) | X: number of panels, acid taste reduced but piercing odor characteristic to aldehydes unpleasant (5 ppt) | A: number of panels, acid taste/acid smell extreme and cause irritation (10 ppb) | B: number of panels, acid taste/acid smell slightly strong and slightly cause irritation (10 ppb) | Flavor judgment: number of panels who judged acid taste/acid smell quality the highest (10 ppb) | A: number of panels, acid taste/acid smell extreme and cause irritation (20 ppt) | B: number of panels, acid taste/acid smell slightly strong and slightly cause irritation (20 ppt) | X: number of panels, acid taste reduced but piercing odor characteristic to aldehydes unpleasant (20 ppt) | A: number of panels, acid taste/acid smell extreme and cause irritation (50 ppb) | B: number of panels, acid taste/acid smell slightly strong and slightly cause irritation (50 ppb) | C: number of panels, acid taste/acid smell slightly unpleasant (50 ppb) | Flavor judgment: number of panels who judged acid taste/acid smell quality the highest (50 ppb) | A: number of panels, acid taste/acid smell extreme and cause irritation (100 ppt) | B: number of panels, acid taste/acid smell slightly strong and slightly cause irritation (100 ppt) | X: number of panels, acid taste reduced but piercing odor characteristic to aldehydes unpleasant (100 ppt) | A: number of panels, acid taste/acid smell extreme and cause irritation (500 ppt) | B: number of panels, acid taste/acid smell slightly strong and slightly cause irritation (500 ppt) | Flavor judgment: number of panels who judged acid taste/acid smell quality the highest (500 ppt)
